Where “and” joins values, the source holds several entries; their conditions need not be identical. Identical values can stand only once. Toxic doses and inconclusive results are not listed. The calls were made as follows: active = survival T/C of 150% or more; inactive = T/C below 125% in these data.
System: P388 leukemia ip, CD2F1 mice, survival T/C
Assay: NCI In Vivo Anticancer Drug Screen. Data for tumor model P388 Leukemia (intraperitoneal) in CD2F1 (CDF1) mice
Settings: endpoint: median survival time, higher = longer survival
How it was run: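 Mice carrying the transplanted tumor received test compound or vehicle. Survival was recorded in each group, and the value is the treated-group measurement divided by that of the vehicle-treated control group.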

[1] = dose: 100.0 mg/kg/injection, schedule: Q01DX009 (ip), vehicle: saline with Tween-80
[2] = dose: 200.0 mg/kg/injection, schedule: Q01DX009 (ip), vehicle: saline with Tween-80
[3] = dose: 50.0 mg/kg/injection, schedule: Q01DX009 (ip), vehicle: Klucel (hydroxypropylcellulose) (HPC)
[4] = dose: 100.0 mg/kg/injection, schedule: Q01DX009 (ip), vehicle: Klucel (hydroxypropylcellulose) (HPC)
[5] = dose: 200.0 mg/kg/injection, schedule: Q01DX009 (ip), vehicle: Klucel (hydroxypropylcellulose) (HPC)
[6] = dose: 50.0 mg/kg/injection, schedule: Q01DX009 (ip), vehicle: saline with Tween-80
[7] = dose: 50.0 mg/kg/injection, schedule: Q01DX005 (ip), vehicle: saline with Tween-80
[8] = dose: 100.0 mg/kg/injection, schedule: Q01DX005 (ip), vehicle: saline with Tween-80
[9] = dose: 200.0 mg/kg/injection, schedule: Q01DX005 (ip), vehicle: saline with Tween-80
[10] = dose: 50.0 mg/kg/injection, schedule: Q01DX009 (ip), vehicle: saline
[11] = dose: 100.0 mg/kg/injection, schedule: Q01DX009 (ip), vehicle: saline
[12] = dose: 60.0 mg/kg/injection, schedule: Q01DX005 (ip), vehicle: saline with Tween-80
[13] = dose: 120.0 mg/kg/injection, schedule: Q01DX005 (ip), vehicle: saline with Tween-80
[14] = dose: 240.0 mg/kg/injection, schedule: Q01DX005 (ip), vehicle: saline with Tween-80
[15] = dose: 100.0 mg/kg/injection, schedule: Q04DX002 (ip), vehicle: Klucel (hydroxypropylcellulose) (HPC)
[16] = dose: 200.0 mg/kg/injection, schedule: Q04DX002 (ip), vehicle: Klucel (hydroxypropylcellulose) (HPC)
[17] = dose: 25.0 mg/kg/injection, schedule: Q01DX005 (ip), vehicle: saline with Tween-80
[18] = dose: 100.0 mg/kg/injection, schedule: Q04DX003 (ip), vehicle: saline
[19] = dose: 200.0 mg/kg/injection, schedule: Q04DX003 (ip), vehicle: saline
[20] = dose: 50.0 mg/kg/injection, schedule: Q01DX005 (ip), vehicle: Klucel (hydroxypropylcellulose) (HPC)
[21] = dose: 100.0 mg/kg/injection, schedule: Q01DX005 (ip), vehicle: Klucel (hydroxypropylcellulose) (HPC)
[22] = dose: 200.0 mg/kg/injection, schedule: Q01DX005 (ip), vehicle: Klucel (hydroxypropylcellulose) (HPC)

Measured: T/C

COc1ccc(Cl)cc1C(c1cc(Cl)ccc1OC)C(Cl)(Cl)Cl
inactive: [1] 100 % of control | [2] 100 % of control | dose: 400.0 mg/kg/injection, schedule: Q01DX009 (ip), vehicle: saline with Tween-80 90 % of control

COc1cc(N2C(=O)C(=O)C(C(C)=O)C2=O)c(OC)cc1Cl (stereo not drawn)
inactive: [3] 100 % of control | [4] 99 % of control | [5] 100 % of control

Cc1ccc(NC(=O)Oc2ccc(Br)cc2Br)c([N+](=O)[O-])c1
inactive: [6] 115 % of control | dose: 50.0 mg/kg/injection, schedule: Q04DX003 (ip), vehicle: saline with Tween-80 115 % of control | [1] 115 % of control | dose: 100.0 mg/kg/injection, schedule: Q04DX003 (ip), vehicle: saline with Tween-80 96 % of control | dose: 200.0 mg/kg/injection, schedule: Q04DX003 (ip), vehicle: saline with Tween-80 99 % of control | dose: 400.0 mg/kg/injection, schedule: Q04DX003 (ip), vehicle: saline with Tween-80 115 % of control

CCOC(=O)C(CCC[n+]1cc2ccccc2c2ccccc21)C(=O)OCC
inactive: dose: 50.0 mg/kg/injection, schedule: Q01DX005 (ip), vehicle: saline 106 % of control | dose: 100.0 mg/kg/injection, schedule: Q01DX005 (ip), vehicle: saline 101 % of control | dose: 200.0 mg/kg/injection, schedule: Q01DX005 (ip), vehicle: saline 101 % of control

COC(=O)C(CO)NC(=O)C(Cc1cnc[nH]1)N(C(=O)OCc1ccccc1)C(=O)OCc1ccccc1 (stereo not drawn)
inactive: [7] 94 % of control | [8] 96 % of control | [9] 94 % of control

C=C[C@@H]1C[C@@]2(C)O[C@@H]([C@@H](OCc3ccccc3)[C@@H]1OC)[C@@H](C)O2
inactive: dose: 100.0 mg/kg/injection, schedule: Q01DX001 (ip), vehicle: saline with Tween-80 96 % of control | dose: 200.0 mg/kg/injection, schedule: Q01DX001 (ip), vehicle: saline with Tween-80 104 % of control | dose: 400.0 mg/kg/injection, schedule: Q01DX001 (ip), vehicle: saline with Tween-80 104 % of control

C[CH2][Sn]([Br])([c]1ccccc1)[c]1ccccc1CN(C)C (stereo not drawn)
inactive: [10] 91 % of control | [11] 98 % of control

CCc1cccc(CC)c1NC1=C(Cl)C(=O)c2ccccc2C1=O
inactive: [12] 100 % of control | [13] 94 % of control | [14] 104 % of control

Cc1csc(=NCc2cccnc2)n1C
inactive: dose: 6.25 mg/kg/injection, schedule: Q01DX009 (ip), vehicle: saline 100 % of control | dose: 12.5 mg/kg/injection, schedule: Q01DX009 (ip), vehicle: saline 107 % of control

CC(=O)Nc1ccc(S(=O)(=O)Nc2ccc3[nH]c(=O)oc3c2)cc1
inactive: dose: 50.0 mg/kg/injection, schedule: Q04DX002 (ip), vehicle: Klucel (hydroxypropylcellulose) (HPC) 104 % of control | [15] 97 % of control | [16] 97 % of control

CC(C)NC(=O)OCc1c(COC(=O)NC(C)C)c2n(c1Br)CCC2
active: [17] 186 % of control

COc1c(CBr)c(CBr)c(OC)c2c1C(=O)c1ccccc1C2=O
inactive: dose: 12.5 mg/kg/injection, schedule: Q01DX005 (ip), vehicle: saline with Tween-80 100 % of control | [17] 99 % of control | [7] 100 % of control and 112 % of control | [8] 95 % of control

Cc1c(-c2ccccc2)n(O)c(-c2ccc([N+](=O)[O-])cc2)[n+]1[O-]
inactive: [6] 99 % of control | [1] 94 % of control | [2] 94 % of control

CC(=O)O/N=C/c1ccccn1
inactive: dose: 25.0 mg/kg/injection, schedule: Q04DX003 (ip), vehicle: saline 94 % of control | dose: 50.0 mg/kg/injection, schedule: Q04DX003 (ip), vehicle: saline 89 % of control and 94 % of control | [18] 100 % of control | [19] 98 % of control and 100 % of control

Nc1[nH]c(=S)[nH]c(=O)c1NS(=O)(=O)c1ccccc1[N+](=O)[O-]
inactive: dose: 30.0 mg/kg/injection, schedule: Q01DX005 (ip), vehicle: Klucel (hydroxypropylcellulose) (HPC) 100 % of control and 94 % of control | dose: 60.0 mg/kg/injection, schedule: Q01DX005 (ip), vehicle: Klucel (hydroxypropylcellulose) (HPC) 98 % of control and 100 % of control | dose: 120.0 mg/kg/injection, schedule: Q01DX005 (ip), vehicle: Klucel (hydroxypropylcellulose) (HPC) 100 % of control and 97 % of control | dose: 240.0 mg/kg/injection, schedule: Q01DX005 (ip), vehicle: Klucel (hydroxypropylcellulose) (HPC) 100 % of control

Cc1nn(C(=S)S)c(C)c1N=Nc1cccc(F)c1
inactive: [7] 117 % of control | [8] 111 % of control | [9] 106 % of control

CCOC(=O)CC1(O)CS/C(=C(\C#N)C(=O)OCC)S1 (stereo not drawn)
inactive: [7] 102 % of control | [8] 102 % of control | [9] 98 % of control

O=C1C(N=Nc2ccccc2)C(O)N(c2ccc(Cl)cc2)C(=S)N1c1cccc(Cl)c1Cl (stereo not drawn)
inactive: [15] 100 % of control | [16] 100 % of control | dose: 400.0 mg/kg/injection, schedule: Q04DX002 (ip), vehicle: Klucel (hydroxypropylcellulose) (HPC) 99 % of control

Cn1c(SCC(=O)O)nnc1C1CCC(=O)N1Cc1ccccc1 (stereo not drawn)
inactive: [12] 110 % of control | [13] 103 % of control | [14] 98 % of control

COc1nccnn1
inactive: [10] 95 % of control | [11] 91 % of control | dose: 200.0 mg/kg/injection, schedule: Q01DX009 (ip), vehicle: saline 95 % of control | dose: 400.0 mg/kg/injection, schedule: Q01DX009 (ip), vehicle: saline 107 % of control

Cc1ccc(N2OC3(CCCCC3)n3c(=O)c4ccccc4c(=O)n3C2c2ccccc2)cc1 (stereo not drawn)
inactive: [3] 105 % of control | [4] 106 % of control | [5] 99 % of control

O=C(CN1CCN(c2ccccc2)CC1)n1cnc2ccc([N+](=O)[O-])cc21
inactive: [12] 96 % of control | [13] 91 % of control

C[N+]1(C)N=C([O-])N(Cc2ccccc2)C1=O
inactive: [18] 118 % of control | [19] 106 % of control

CC1CCCCN1C(=O)C(c1ccccc1)(c1ccccc1)c1ccccc1 (stereo not drawn)
inactive: [20] 99 % of control | [21] 99 % of control | [22] 93 % of control

C=C1C(=O)OC2/C=C(\C=O)C3OC3C3OC3(C)CC(OC(=O)/C(=C/C)CO)C12 (stereo not drawn)
inactive: dose: 3.12 mg/kg/injection, schedule: Q01DX005 (ip), vehicle: Klucel (hydroxypropylcellulose) (HPC) 100 % of control | dose: 6.25 mg/kg/injection, schedule: Q01DX005 (ip), vehicle: Klucel (hydroxypropylcellulose) (HPC) 110 % of control | dose: 12.5 mg/kg/injection, schedule: Q01DX005 (ip), vehicle: Klucel (hydroxypropylcellulose) (HPC) 110 % of control | dose: 25.0 mg/kg/injection, schedule: Q01DX005 (ip), vehicle: Klucel (hydroxypropylcellulose) (HPC) 101 % of control

CS/C(=N\S(=O)(=O)c1ccccc1)NNC(=O)c1c(-c2c(Cl)cccc2Cl)noc1C
inactive: [12] 100 % of control | [13] 100 % of control | [14] 91 % of control

CNc1cccnc1C1OCCO1
inactive: [20] 96 % of control | [21] 102 % of control | [22] 100 % of control

Reference: PubChem BioAssay AID330 (DTP/NCI, 2004)
